Laboratory results reported in patent publication US20230084927A1, “GLUCOSE UPTAKE INHIBITORS AND USES THEREOF” (METABOMED LTD., priority 2019, published 2023).
Where two headings read alike, the source gives them in different places.

How the values were obtained:
[1] = test system: Panc1 (Pancreatic cancer); experiment: Toxicity assay with or without rotenone; type: cell-based; conditions: Homo sapiens, PANC-1, 72 hours
Description: (§1) Toxicity assay: Cells were growing in 96 well plates in DMEM F12 with 17 mM glucose, 0.5 mM Sodium Pyruvate, 1 mM Glutamine and 3% FBS. The cells were treated with the indicated compounds (10 different concentrations) with or without 25 nM rotenone. Viability was determined after 72 hours of treatment using CellTiter Glo reagent (Promega). EC50 was calculated using Prism software.

[2] = test system: MiaPaca2 (Pancreatic cancer); experiment: Toxicity assay with or without rotenone; type: cell-based; conditions: Homo sapiens, MIA PaCa-2, 72 hours
Description: as §1

MM.1S (Multiple myeloma) = experiment: Toxicity assay with or without rotenone; type: cell-based; conditions: Homo sapiens, MM1.S, 72 hours
Description: as §1

HCT116 (Colon cancer) = experiment: Toxicity assay with or without rotenone; type: cell-based; conditions: Homo sapiens, HCT-116, 72 hours
Description: as §1

[3] = test system: MDA-MB-468 (Breast cancer); experiment: Toxicity assay with or without rotenone; type: cell-based; conditions: Homo sapiens, 72 hours
Description: as §1

[4] = Glucose levels and Maximum Tolerated Dose in mice at different diets; type: in vivo
Excerpt: Glucose Levels as Measured in Mice after Different Dosages of Compound 111 at Different Diets.

SDH-WT cells = experiment: Cellular / differential toxicity assay (CellTiter-Glo, 3 days); type: cell-based, murine; conditions: Mus musculus, 72 h, toxicity, SDH-WT cells, 3 days, CellTiter-Glo; read-out: EC50 (uM) SDH-WT
In short: (§2)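 Isogenic SDHB-deficient (HRAS-transformed SDH-KO) and SDH-WT cells grown in DMEM-F12 with 1 mM glutamine and 3% FBS, plated with compound (10-point dilution from 10 uM to 0.0065 uM or lower) for 3 days at 37 °C, 5% CO2. Viability by CellTiter-Glo luminescence; EC50 calculated.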

[5] = test system: SDH-KO-HRAS cells (SDHB-deficient); experiment: as above; type: cell-based, murine; conditions: Mus musculus, 72 h, toxicity, SDH-KO cells, 3 days, CellTiter-Glo; read-out: EC50 (uM) SDH-KO-HTAS-C17
In short: as §2

[6] = Plasma glucose levels in mice after oral administration; type: in vivo; conditions: 2 mg/Kg
Description: FIG. 8 depicts the glucose levels in mice plasma after oral administration of 2 mg/Kg of compound 111. Compound 111 at 2 mg/kg was orally administrated to mice. Blood samples were taken at different time points thereafter and Glucose level was determined.

[7] = test system: SDH-KO cells (SDH-deficient tumors); experiment: Tumor volume of SDH-KO cells vs. time in mice on ketogenic diet; type: in vivo; conditions: treated two weeks post-injection, prior to tumor formation
Excerpt: FIG. 10 depicts the tumor volume of SDH-KO cells vs. time in mice on ketogenic diet, treated for two weeks post-injection, but prior to tumor formation.

For `CC(=O)Nc1ccc(CCNc2ncnc3c2sc2nc4c(cc23)COC(C)(C)C4)cc1` [Compound 111], the EC50 ([1]; Panc1, with 25 nM rotenone, read-out: EC50 (nM) with Rotenone) was 91 nM, the EC50 ([1]; Panc1, without rotenone, read-out: EC50) was 136000 nM and the EC50 ([2]; MiaPaca2, with 25 nM rotenone, read-out: EC50 (nM) with Rotenone) was 61 nM. The EC50 ([2]; MiaPaca2, without rotenone, read-out: EC50) was 37000 nM, the EC50 (MM.1S (Multiple myeloma); with 25 nM rotenone, read-out: EC50 (nM) with Rotenone) was 52 nM and the EC50 (MM.1S (Multiple myeloma); without rotenone, read-out: EC50) was 79000 nM. For the same compound, the EC50 (HCT116 (Colon cancer); HCT116, with 25 nM rotenone, read-out: EC50 (nM) with Rotenone) was 510 nM, the EC50 (HCT116 (Colon cancer); HCT116, without rotenone, read-out: EC50) was 9700 nM and the EC50 ([3]; MDA-MB-468, with 25 nM rotenone, read-out: EC50 (nM) with Rotenone) was 1400 nM. For the same compound, the EC50 ([3]; MDA-MB-468, without rotenone, read-out: EC50) was > 30000 nM, the “elevation in plasma glucose levels on ketogenic diet” value ([4]; ketogenic diet) was “delayed” and the “Maximum Tolerated Dose (MTD) on ketogenic diet” value ([4]; ketogenic diet vs other diet) was “doubled”. The “tolerability on ketogenic diet” value ([4]; ketogenic diet, two weeks of treatment) was “up to 4 mg/Kg”, the EC50 (SDH-WT cells) was > 10 µM and the EC50 [5] was < 1 µM. The “level of glucose in the plasma” value [6] was “increase” and the “tumor onset and growth (tumor volume vs. time)” value [7] was “delays tumor onset and growth”.
